Laboratory results as given in article PMC8999625, “Antiviral Effects of ABMA and DABMA against Influenza Virus In Vitro and In Vivo via Regulating the Endolysosomal Pathway and Autophagy” (International Journal of Molecular Sciences, 2022).
“Also recorded” adds a separate entry of the source. Where a name gives a salt, the structure may show the parent alone. Read-outs that look alike come from different tables or passages of the source.

Columns and labels:
[1] = tested on: Corynebacterium diphtheriae; set-up: method as in PMID 29138439; settings: cited from earlier work
HSV-2 = settings: cited from earlier work
Ebola virus = settings: cited from earlier work
A/NY/61/LV16A (H1N1) [2] = test: H1N1 NP mRNA by qRT-PCR in A549 cells treated with autophagy inhibitors; type: cell-based, influenza virus
in vitro [3] = settings: dog
in vitro [4] = settings: human
A/NY/61/LV16A (H1N1) [5] = test: Binding assay; type: cell-based, influenza virus
A/NY/61/LV16A (H1N1) [6] = test: CPE inhibition assay; type: cell-based
[7] = tested on: A/Maonan/SWL1536/2019 (H1N1); test: CPE inhibition assay; type: cell-based
A/NY/61/LV16A (H1N1) [8] = test: Viral nucleoprotein (NP) by Western blotting; type: cell-based, influenza virus
A/NY/61/LV16A (H1N1) [9] = test: H1N1 RNA replication by qRT-PCR in MDCK cells; type: cell-based, influenza virus
Rab7 = type: cell-based; settings: 15 µM, A549 cells, 3 hpi
B/Washington/02/2019 = test: CPE inhibition assay; type: cell-based
A/NY/61/LV16A (H1N1) [10] = type: cell-based; settings: 15 μM, A549 cells, MOI = 1, 16 hpi, vs virus control
[11] = uninfected mice, 5 mg/kg i.p.
A/NY/61/LV16A (H1N1) [12] = test: Time of addition assay; type: cell-based, influenza virus
A/NY/61/LV16A (H1N1) [13] = type: in vivo, BALB/c mice; settings: for survival rate: 5 mg/kg i.p. once daily for 6 days, H1N1 i.n., 14 days; for H1N1 virus titers in the lungs compared to placebo / lung histopathology changes (H&E) / lung index compared to placebo / lung viral load compared to placebo: mouse, in vivo, ip
A/NY/61/LV16A (H1N1) [14] = test: Entry assay; type: cell-based, influenza virus
A/17/HK/2014/8296 (H3N2) = test: CPE inhibition assay; type: cell-based
LC3B-II and p62 = test: Autophagy markers by Western blotting in A549 cells; type: cell-based; settings: dose- and time-dependent
[15] = tested on: influenza virus strains (H1N1, H3N2, influenza B virus); test: CPE inhibition assay, all influenza virus strains tested; type: cell-based; settings: unidentified influenza virus; range over five strains, MDCK cells; read-out: EC50 values ranging, all influenza virus strains tested
[16] = Cytotoxicity, CellTiter-Glo cell viability; settings: dog, uninfected MDCK cells
[17] = Influenza A virus, H1N1, MDCK; read-out: EC50 ± SD A/NY/61/LV16A (H1N1)
[18] = Influenza A virus, H1N1; MDCK cells; read-out: EC90 (approximately)
[19] = Influenza A virus, H1N1, MDCK; read-out: EC50 ± SD A/Maonan/SWL1536/2019 (H1N1)
[20] = Influenza B virus; B/M2; infected MDCK cells, MOI = 0.01, 48 hpi; read-out: EC50 ± SD B/Washington/02/2019
[21] = Influenza A virus, H3N2, MDCK; read-out: EC50 ± SD A/17/HK/2014/8296 (H3N2)

SMILES: CC(N)C12CC3CC(CC(C3)C1)C2 (stereo not shown) [1-(1-adamantyl) ethylamine]
- activity against Corynebacterium diphtheriae [1]: inactive
- activity against HSV-2 infection (HSV-2): inactive
- activity against Ebola virus (Ebola virus): inactive

SMILES: Cn1cnc(N)c2ncnc1-2 [3-MA, 3-methyladenine]
- H1N1 RNA content (A/NY/61/LV16A (H1N1) [2]): significantly decreased

SMILES: COc1ccc(Br)cc1CNC12CC3CC(CC(C3)C1)C2 [ABMA, 1-adamantyl (5-bromo-2-methoxybenzyl) amine]
- CC50 at 72 h (in vitro [3]): 72.3 ± 1.09 µM
- CC50 (in vitro [4]): 83.8 ± 1.92 µM
- binding of the virus to cells (A/NY/61/LV16A (H1N1) [5]): do not affect
- EC50 (A/NY/61/LV16A (H1N1) [6]; [17]): 3.25 ± 0.17 µM
- EC90 (A/NY/61/LV16A (H1N1) [6]; [18]): ~15 µM
- EC50 [7, 19]: 4.57 ± 0.33 µM
- NP expression levels (Western blot) (A/NY/61/LV16A (H1N1) [8]): reduced; also recorded: decreased
- inhibition of H1N1 RNA replication (qRT-PCR) (A/NY/61/LV16A (H1N1) [9]): 81.77%
- Rab7 protein fluorescence (Rab7): largely increased
- EC50 (B/Washington/02/2019; [20]): 7.36 ± 0.65 µM
- NP fluorescence signal (A/NY/61/LV16A (H1N1) [10]): significantly decreased
- changes in animal behavior, lethargy and body weight [11]: No remarkable changes
- H1N1 RNA content, time of addition (A/NY/61/LV16A (H1N1) [12]): significantly reduced
- survival rate (A/NY/61/LV16A (H1N1) [13]): 67%
- H1N1 virus titers in the lungs compared to placebo (A/NY/61/LV16A (H1N1) [13]): lower titers
- lung histopathology changes (H&E) (A/NY/61/LV16A (H1N1) [13]): significant reduction
- lung index compared to placebo (A/NY/61/LV16A (H1N1) [13]): significantly reduced
- lung viral load compared to placebo (A/NY/61/LV16A (H1N1) [13]): significantly reduced
- entry stage of H1N1 (A/NY/61/LV16A (H1N1) [14]): significantly inhibited
- EC50 (A/17/HK/2014/8296 (H3N2); [21]): 5.58 ± 0.38 µM
- LC3B-II level (LC3B-II and p62): increased
- p62 level (LC3B-II and p62): increased
- EC50 [15]: 2.83 to 7.36 µM

SMILES: NC12CC3CC(CC(C3)C1)C2 [Amantadine, Amantadine hydrochloride]
- CC50 (in vitro [3]): 477 ± 39.5 µM
- EC50 (A/NY/61/LV16A (H1N1) [6]; [17]): 9.97 ± 1.34 µM
- EC50 [7, 19]: 20.2 ± 1.36 µM
- activity against Corynebacterium diphtheriae [1]: inactive
- antiviral activity against B/Washington/02/2019 (IBV) (B/Washington/02/2019): did not show antiviral activity; also recorded: no significant protection
- EC50 (B/Washington/02/2019; Influenza B virus, MDCK, read-out: EC50 ± SD B/Washington/02/2019): > 100 µM
- EC50 (A/17/HK/2014/8296 (H3N2); [21]): 8.27 ± 0.66 µM
- activity against HSV-2 infection (HSV-2): inactive
- activity against Ebola virus (Ebola virus): inactive

SMILES: CO/C1=C\C(C)=C\[C@@H](C)[C@@H](O)[C@@H](C)C/C(C)=C/C=C/[C@H](OC)[C@@H]([C@@H](C)[C@@H](O)[C@H](C)[C@@]2(O)C[C@@H](O)[C@H](C)[C@@H](C(C)C)O2)OC1=O [Baf A1, Bafilomycin A1, reference compound]
- H1N1 RNA content (A/NY/61/LV16A (H1N1) [2]): significantly decreased
- NP expression levels (Western blot) (A/NY/61/LV16A (H1N1) [8]): decreased

SMILES: CCN(CC)CCCC(C)Nc1ccnc2cc(Cl)ccc12 (stereo not shown) [Chloroquine, reference compound]
- EC50 (A/NY/61/LV16A (H1N1) [6]; [17]): 17.1 ± 2.27 µM
- EC50 (A/17/HK/2014/8296 (H3N2); [21]): 12 ± 1.26 µM

SMILES: COc1ccc(Br)cc1CNC12CC3CC(C)(CC(C)(C3)C1)C2 [DABMA, 1,3-dimethyl-1-adamantyl (5-bromo-2-methoxybenzyl) amine]
- CC50 at 72 h (in vitro [3]): 42.7 ± 1.46 µM
- CC50 (in vitro [4]): 47.4 ± 1.68 µM
- binding of the virus to cells (A/NY/61/LV16A (H1N1) [5]): do not affect
- EC50 (A/NY/61/LV16A (H1N1) [6]; [17]): 1.82 ± 0.11 µM
- EC90 (A/NY/61/LV16A (H1N1) [6]; [18]): ~15 µM
- EC50 [7, 19]: 2.69 ± 0.26 µM
- NP expression levels (Western blot) (A/NY/61/LV16A (H1N1) [8]): reduced
- inhibition of H1N1 RNA replication (qRT-PCR) (A/NY/61/LV16A (H1N1) [9]): 86.51%
- EC50 (B/Washington/02/2019; [20]): 6.62 ± 0.46 µM
- NP fluorescence signal (A/NY/61/LV16A (H1N1) [10]): significantly decreased
- changes in animal behavior, lethargy and body weight [11]: No remarkable changes
- H1N1 RNA content, time of addition (A/NY/61/LV16A (H1N1) [12]): significantly reduced
- survival rate (A/NY/61/LV16A (H1N1) [13]): 67%
- H1N1 virus titers in the lungs compared to placebo (A/NY/61/LV16A (H1N1) [13]): lower titers
- lung histopathology changes (H&E) (A/NY/61/LV16A (H1N1) [13]): significant reduction
- lung index compared to placebo (A/NY/61/LV16A (H1N1) [13]): significantly reduced
- lung viral load compared to placebo (A/NY/61/LV16A (H1N1) [13]): significantly reduced
- entry stage of H1N1 (A/NY/61/LV16A (H1N1) [14]): significantly inhibited
- EC50 (A/17/HK/2014/8296 (H3N2); [21]): 6.73 ± 0.73 µM
- EC50 [15]: 1.82 to 6.73 µM

SMILES: CCOC(=O)C1=C[C@@H](OC(CC)CC)[C@H](NC(C)=O)[C@@H](N)C1 [Oseltamivir, Oseltamivir phosphate]
- CC50 at 72 h (in vitro [3]): 1890 ± 71.8 µM
- EC50 (A/NY/61/LV16A (H1N1) [6]; [17]): 7.97 ± 0.85 µM
- EC50 [7, 19]: 2.95 ± 0.21 µM
- EC50 (B/Washington/02/2019; Influenza B virus, MDCK; read-out: EC50 ± SD B/Washington/02/2019): 8.53 ± 1.64 µM
- EC50 (A/17/HK/2014/8296 (H3N2); [21]): 7.3 ± 0.79 µM

SMILES: NC(=O)c1ncn([C@@H]2O[C@H](CO)[C@@H](O)[C@H]2O)n1 [Ribavirin, ribavirin]
- EC50 (A/NY/61/LV16A (H1N1) [6]; Influenza A virus, H1N1, MDCK, read-out: EC50 ± SD A/NY/61/LV16A (H1N1)): 1.61 ± 0.62 µM
- EC50 ([7]; Influenza A virus, H1N1, MDCK, read-out: EC50 ± SD A/Maonan/SWL1536/2019 (H1N1)): 3.2 ± 0.34 µM
- CC50 at 72 h [16]: 5.48 ± 0.255 mM
- EC50 (B/Washington/02/2019; [20]): 3.02 ± 0.39 µM
- EC50 (A/17/HK/2014/8296 (H3N2); Influenza A virus, H3N2, MDCK, read-out: EC50 ± SD A/17/HK/2014/8296 (H3N2)): 0.13 ± 0.04 µM

SMILES: CC12CC3CC(C)(C1)CC(N)(C3)C2 [memantine]
- activity against Corynebacterium diphtheriae [1]: inactive
- activity against HSV-2 infection (HSV-2): inactive
- activity against Ebola virus (Ebola virus): inactive
